Laboratory results reported in the supplement of paper PMC13207355.
Counter-ions that a name gives are not always drawn.

What was measured:
Conditions in all cases: exposure time: 72 h
E57 [1] = patient-derived glioblastoma stem cells of mesenchymal subtype; test: phenotypic distance (Euclidean, principal components) from DMSO controls (arbitrary units); higher = stronger morphological change
E21 [2] = patient-derived glioblastoma stem cells of mesenchymal subtype; test: as above
E13 [3] = patient-derived glioblastoma stem cells of classical subtype; test: as above
E31 [4] = patient-derived glioblastoma stem cells of proneural subtype; test: as above
E28 [5] = patient-derived glioblastoma stem cells of classical subtype; test: as above
E34 [6] = patient-derived glioblastoma stem cells of proneural subtype; test: as above
FT3469 [7] = normal neural stem cell line; test: as above
E57 [8] = test: surviving fraction (nuclei count normalised to DMSO); higher = more cells surviving (less toxic)
E21 [9] = test: as above
E13 [10] = test: as above
E31 [11] = test: as above
E28 [12] = test: as above
E34 [13] = test: as above
FT3469 [14] = test: as above
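Wherever phenotypic distance (Euclidean, principal components) from DMSO controls is given: cell Painting imaging in 384-well plates, CellProfiler features reduced to at least 20 principal components, Euclidean distance versus same-plate DMSO vehicle wells (0.1% v/v), median over six images per well.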
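Wherever surviving fraction (nuclei count normalised to DMSO) is given: nuclei counted by high-content imaging of Hoechst-stained cells in laminin-coated 384-well plates, relative to 0.1% DMSO vehicle wells, with staurosporine as cell-death control.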

CCCCCCCCCCCCCC(=O)O[C@@H]1[C@@H](C)[C@@]2(O)[C@@H](C=C(CO)C[C@]3(O)C(=O)C(C)=C[C@@H]23)[C@@H]2C(C)(C)[C@]12OC(C)=O [Phorbol 12-myristate 13-acetate]
phenotypic distance (E57 [1]; 4.1 nM): 7.04 | phenotypic distance (E57 [1]; 12.3 nM): 6.41 | phenotypic distance (E57 [1]; 37 nM): 5.79 | phenotypic distance (E57 [1]; 111.1 nM): 8.21 | phenotypic distance (E57 [1]; 333.3 nM): 6.38 | phenotypic distance (E57 [1]; 1000 nM): 6.18 | phenotypic distance (E57 [1]; 3000 nM): 11.1 | phenotypic distance (E21 [2]; 4.1 nM): 2.4 | phenotypic distance (E21 [2]; 12.3 nM): 2.57 | phenotypic distance (E21 [2]; 37 nM): 2.24 | phenotypic distance (E21 [2]; 111.1 nM): 2.1 | phenotypic distance (E21 [2]; 333.3 nM): 2.01 | phenotypic distance (E21 [2]; 1000 nM): 1.76 | phenotypic distance (E21 [2]; 3000 nM): 6.77 | phenotypic distance (E13 [3]; 4.1 nM): 2.62 | phenotypic distance (E13 [3]; 12.3 nM): 2.5 | phenotypic distance (E13 [3]; 37 nM): 2.61 | phenotypic distance (E13 [3]; 111.1 nM): 2.82 | phenotypic distance (E13 [3]; 333.3 nM): 1.86 | phenotypic distance (E13 [3]; 1000 nM): 2.26 | phenotypic distance (E13 [3]; 3000 nM): 2.58 | phenotypic distance (E31 [4]; 4.1 nM): 3.22 | phenotypic distance (E31 [4]; 12.3 nM): 3.36 | phenotypic distance (E31 [4]; 37 nM): 2.74 | phenotypic distance (E31 [4]; 111.1 nM): 1.67 | phenotypic distance (E31 [4]; 333.3 nM): 1.98 | phenotypic distance (E31 [4]; 1000 nM): 1.94 | phenotypic distance (E31 [4]; 3000 nM): 6.13 | phenotypic distance (E28 [5]; 4.1 nM): 2.11 | phenotypic distance (E28 [5]; 12.3 nM): 1.89 | phenotypic distance (E28 [5]; 37 nM): 1.72 | phenotypic distance (E28 [5]; 111.1 nM): 1.44 | phenotypic distance (E28 [5]; 333.3 nM): 1.52 | phenotypic distance (E28 [5]; 1000 nM): 1.21 | phenotypic distance (E28 [5]; 3000 nM): 4.49 | phenotypic distance (E34 [6]; 4.1 nM): 4.26 | phenotypic distance (E34 [6]; 12.3 nM): 4.21 | phenotypic distance (E34 [6]; 37 nM): 3.53 | phenotypic distance (E34 [6]; 111.1 nM): 3.9 | phenotypic distance (E34 [6]; 333.3 nM): 2.78 | phenotypic distance (E34 [6]; 1000 nM): 2.96 | phenotypic distance (E34 [6]; 3000 nM): 4.34 | phenotypic distance (FT3469 [7]; 4.1 nM): 3.13 | phenotypic distance (FT3469 [7]; 12.3 nM): 2.56 | phenotypic distance (FT3469 [7]; 37 nM): 3.38 | phenotypic distance (FT3469 [7]; 111.1 nM): 2.45 | phenotypic distance (FT3469 [7]; 333.3 nM): 1.86 | phenotypic distance (FT3469 [7]; 1000 nM): 2.16 | phenotypic distance (FT3469 [7]; 3000 nM): 4.11 | surviving fraction (E57 [8]; 4.1 nM): 0.331 | surviving fraction (E57 [8]; 12.3 nM): 0.32 | surviving fraction (E57 [8]; 37 nM): 0.374 | surviving fraction (E57 [8]; 111.1 nM): 0.233 | surviving fraction (E57 [8]; 333.3 nM): 0.369 | surviving fraction (E57 [8]; 1000 nM): 0.367 | surviving fraction (E57 [8]; 3000 nM): 0.108 | surviving fraction (E21 [9]; 4.1 nM): 0.677 | surviving fraction (E21 [9]; 12.3 nM): 0.88 | surviving fraction (E21 [9]; 37 nM): 0.786 | surviving fraction (E21 [9]; 111.1 nM): 0.68 | surviving fraction (E21 [9]; 333.3 nM): 0.75 | surviving fraction (E21 [9]; 1000 nM): 0.775 | surviving fraction (E21 [9]; 3000 nM): 0.0234 | surviving fraction (E13 [10]; 4.1 nM): 0.681 | surviving fraction (E13 [10]; 12.3 nM): 0.64 | surviving fraction (E13 [10]; 37 nM): 0.728 | surviving fraction (E13 [10]; 111.1 nM): 0.596 | surviving fraction (E13 [10]; 333.3 nM): 0.708 | surviving fraction (E13 [10]; 1000 nM): 0.576 | surviving fraction (E13 [10]; 3000 nM): 0.47 | surviving fraction (E31 [11]; 4.1 nM): 1.07 | surviving fraction (E31 [11]; 12.3 nM): 1.06 | surviving fraction (E31 [11]; 37 nM): 1.23 | surviving fraction (E31 [11]; 111.1 nM): 1.01 | surviving fraction (E31 [11]; 333.3 nM): 1.07 | surviving fraction (E31 [11]; 1000 nM): 0.994 | surviving fraction (E31 [11]; 3000 nM): 0.0149 | surviving fraction (E28 [12]; 4.1 nM): 0.75 | surviving fraction (E28 [12]; 12.3 nM): 0.65 | surviving fraction (E28 [12]; 37 nM): 0.725 | surviving fraction (E28 [12]; 111.1 nM): 0.795 | surviving fraction (E28 [12]; 333.3 nM): 0.815 | surviving fraction (E28 [12]; 1000 nM): 0.668 | surviving fraction (E28 [12]; 3000 nM): 0.383 | surviving fraction (E34 [13]; 4.1 nM): 0.524 | surviving fraction (E34 [13]; 12.3 nM): 0.516 | surviving fraction (E34 [13]; 37 nM): 0.618 | surviving fraction (E34 [13]; 111.1 nM): 0.488 | surviving fraction (E34 [13]; 333.3 nM): 0.688 | surviving fraction (E34 [13]; 1000 nM): 0.48 | surviving fraction (E34 [13]; 3000 nM): 0.478 | surviving fraction (FT3469 [14]; 4.1 nM): 0.75 | surviving fraction (FT3469 [14]; 12.3 nM): 0.728 | surviving fraction (FT3469 [14]; 37 nM): 0.729 | surviving fraction (FT3469 [14]; 111.1 nM): 0.701 | surviving fraction (FT3469 [14]; 333.3 nM): 0.832 | surviving fraction (FT3469 [14]; 1000 nM): 0.791 | surviving fraction (FT3469 [14]; 3000 nM): 0.571

CCCCCCC[N+](CC)(CC)CCCCc1ccc(Cl)cc1 [Clofilium tosylate]
phenotypic distance (E57 [1]; 4.1 nM): 0.657 | phenotypic distance (E57 [1]; 12.3 nM): 0.645 | phenotypic distance (E57 [1]; 37 nM): 0.931 | phenotypic distance (E57 [1]; 111.1 nM): 0.93 | phenotypic distance (E57 [1]; 333.3 nM): 0.68 | phenotypic distance (E57 [1]; 1000 nM): 0.764 | phenotypic distance (E57 [1]; 3000 nM): 1.73 | phenotypic distance (E21 [2]; 4.1 nM): 0.676 | phenotypic distance (E21 [2]; 12.3 nM): 1 | phenotypic distance (E21 [2]; 37 nM): 1.04 | phenotypic distance (E21 [2]; 111.1 nM): 1.16 | phenotypic distance (E21 [2]; 333.3 nM): 1.29 | phenotypic distance (E21 [2]; 1000 nM): 1.68 | phenotypic distance (E21 [2]; 3000 nM): 3.13 | phenotypic distance (E13 [3]; 4.1 nM): 0.802 | phenotypic distance (E13 [3]; 12.3 nM): 1.25 | phenotypic distance (E13 [3]; 37 nM): 0.557 | phenotypic distance (E13 [3]; 111.1 nM): 0.985 | phenotypic distance (E13 [3]; 333.3 nM): 0.488 | phenotypic distance (E13 [3]; 1000 nM): 0.667 | phenotypic distance (E13 [3]; 3000 nM): 1.83 | phenotypic distance (E31 [4]; 4.1 nM): 0.758 | phenotypic distance (E31 [4]; 12.3 nM): 0.742 | phenotypic distance (E31 [4]; 37 nM): 0.443 | phenotypic distance (E31 [4]; 111.1 nM): 0.89 | phenotypic distance (E31 [4]; 333.3 nM): 0.62 | phenotypic distance (E31 [4]; 1000 nM): 1.43 | phenotypic distance (E31 [4]; 3000 nM): 2.44 | phenotypic distance (E28 [5]; 4.1 nM): 0.664 | phenotypic distance (E28 [5]; 12.3 nM): 1.16 | phenotypic distance (E28 [5]; 37 nM): 0.464 | phenotypic distance (E28 [5]; 111.1 nM): 0.925 | phenotypic distance (E28 [5]; 333.3 nM): 0.998 | phenotypic distance (E28 [5]; 1000 nM): 1.17 | phenotypic distance (E28 [5]; 3000 nM): 1.84 | phenotypic distance (E34 [6]; 4.1 nM): 1 | phenotypic distance (E34 [6]; 12.3 nM): 1.05 | phenotypic distance (E34 [6]; 37 nM): 0.94 | phenotypic distance (E34 [6]; 111.1 nM): 1.17 | phenotypic distance (E34 [6]; 333.3 nM): 1.13 | phenotypic distance (E34 [6]; 1000 nM): 1.33 | phenotypic distance (E34 [6]; 3000 nM): 1.86 | phenotypic distance (FT3469 [7]; 4.1 nM): 0.575 | phenotypic distance (FT3469 [7]; 12.3 nM): 1.1 | phenotypic distance (FT3469 [7]; 37 nM): 0.53 | phenotypic distance (FT3469 [7]; 111.1 nM): 1.01 | phenotypic distance (FT3469 [7]; 333.3 nM): 0.917 | phenotypic distance (FT3469 [7]; 1000 nM): 1.08 | phenotypic distance (FT3469 [7]; 3000 nM): 1.3 | surviving fraction (E57 [8]; 4.1 nM): 1.1 | surviving fraction (E57 [8]; 12.3 nM): 0.992 | surviving fraction (E57 [8]; 37 nM): 1.14 | surviving fraction (E57 [8]; 111.1 nM): 0.977 | surviving fraction (E57 [8]; 333.3 nM): 1.02 | surviving fraction (E57 [8]; 1000 nM): 0.959 | surviving fraction (E57 [8]; 3000 nM): 0.866 | surviving fraction (E21 [9]; 4.1 nM): 1 | surviving fraction (E21 [9]; 12.3 nM): 1.11 | surviving fraction (E21 [9]; 37 nM): 1.1 | surviving fraction (E21 [9]; 111.1 nM): 1 | surviving fraction (E21 [9]; 333.3 nM): 0.976 | surviving fraction (E21 [9]; 1000 nM): 1.12 | surviving fraction (E21 [9]; 3000 nM): 0.609 | surviving fraction (E13 [10]; 4.1 nM): 1.17 | surviving fraction (E13 [10]; 12.3 nM): 1.06 | surviving fraction (E13 [10]; 37 nM): 0.817 | surviving fraction (E13 [10]; 111.1 nM): 0.945 | surviving fraction (E13 [10]; 333.3 nM): 0.896 | surviving fraction (E13 [10]; 1000 nM): 0.937 | surviving fraction (E13 [10]; 3000 nM): 0.609 | surviving fraction (E31 [11]; 4.1 nM): 0.763 | surviving fraction (E31 [11]; 12.3 nM): 1.03 | surviving fraction (E31 [11]; 37 nM): 1.04 | surviving fraction (E31 [11]; 111.1 nM): 0.913 | surviving fraction (E31 [11]; 333.3 nM): 1.01 | surviving fraction (E31 [11]; 1000 nM): 0.95 | surviving fraction (E31 [11]; 3000 nM): 0.452 | surviving fraction (E28 [12]; 4.1 nM): 0.984 | surviving fraction (E28 [12]; 12.3 nM): 1.28 | surviving fraction (E28 [12]; 37 nM): 0.96 | surviving fraction (E28 [12]; 111.1 nM): 1.18 | surviving fraction (E28 [12]; 333.3 nM): 1.16 | surviving fraction (E28 [12]; 1000 nM): 1.05 | surviving fraction (E28 [12]; 3000 nM): 0.485 | surviving fraction (E34 [13]; 4.1 nM): 1.09 | surviving fraction (E34 [13]; 12.3 nM): 1.07 | surviving fraction (E34 [13]; 37 nM): 0.961 | surviving fraction (E34 [13]; 111.1 nM): 0.954 | surviving fraction (E34 [13]; 333.3 nM): 0.998 | surviving fraction (E34 [13]; 1000 nM): 1.02 | surviving fraction (E34 [13]; 3000 nM): 0.813 | surviving fraction (FT3469 [14]; 4.1 nM): 1.12 | surviving fraction (FT3469 [14]; 12.3 nM): 1.26 | surviving fraction (FT3469 [14]; 37 nM): 0.944 | surviving fraction (FT3469 [14]; 111.1 nM): 1.13 | surviving fraction (FT3469 [14]; 333.3 nM): 1.13 | surviving fraction (FT3469 [14]; 1000 nM): 1.07 | surviving fraction (FT3469 [14]; 3000 nM): 0.838
